# Measured values reported in patent US20020035061A1, “COMPOSITIONS AND METHODS FOR TREATING INFECTIONS USING CATIONIC PEPTIDES ALONE OR IN COMBINATION WITH ANTIBIOTICS” (priority 1996, published 2002).
# Where two headings read alike, the source gives them in different places.
# Key:
# [1] = Single dose toxicity, intraperitoneal injection, formulations; conditions: mouse, in vivo, ip, outbred ICR mice (Table 32)
# Procedure: The single dose toxicity of a cationic peptide and antibiotic agent combination is examined in outbred ICR mice. Intraperitoneal injection of the combination in isotonic saline is carried out at increasing dose levels. The survival of the animals is monitored for 7 days. The number of animals surviving at each dose level is used to determine the maximum tolerated dose (MTD). In addition, the MTD can be determined after administration of the peptide and agent by different routes, at different time points, and in different formulations.
# [2] = Cell death by Cytotox (Promega) lactate dehydrogenase release; type: cell-based; conditions: LDH release
# Procedure: In addition, APO-peptides and parent peptides are tested against a panel of cancer cell lines. Cell death is measured using the Cytotox (Promega) assay kit which measures the release of lactate dehydrogenase.
# PBL, peripheral blood lymphocytes; HUVEC, human umbilical vein endothelial cells; H460,non-small lung tumor; K562, chronic myelogenous leukemia; DoHH-2, B-cell cell lymphoma; P388, lymphocytic leukemia; P388ADR, lymphocytic leukemia, multidrug resistant; MCF-7, breast carcinoma; MCF-7ADR, breast carcinoma, multidrug resistant.
# [3] = system: mammalian red blood cells; conditions: 37° C., 1 hour
# Procedure: Candidate cationic peptides may be further tested for their toxicity to normal mammalian cells. An exemplary assay is a red blood cell (RBC) (erythrocyte) hemolysis assay. Briefly, in this assay, red blood cells are isolated from whole blood, typically by centrifugation, and washed free of plasma components. A 5% (v/v) suspension of erythrocytes in isotonic saline is incubated with different concentrations of peptide analogue. […] After incubation for approximately 1 hour at 37° C., the cells are centrifuged, and the absorbance of the supernatant at 540 nm is determined. A relative measure of lysis is determined by comparison to absorbance after complete lysis of erythrocytes using NH4Cl or equivalent (establishing a 100% value). A peptide with <10% lysis at 100 μg/ml is suitable. Preferably, there is <5% lysis at 100 μg/ml. Such peptides that are not lytic, or are only moderately lytic, are desirable and suitable for further screening.
# Cationic peptides are tested for toxicity towards eukaryotic cells by measuring the extent of lysis of mammalian red blood cells (RBC). Briefly, in this assay, red blood cells are separated from whole blood by centrifugation and washed free of plasma components. A 5% (v/v) washed red blood cell suspension is prepared in isotonic saline. An aliquot of peptide in formulation is then added and mixed in. After incubation at 37° C. for 1 hour with constant agitation, the solution is centrifuged and the supernatant measured for absorbance at 540 nm to detect released hemoglobin.
# A combination of cationic peptide and antibiotic agent is tested for toxicity towards eukaryotic cells by measuring the extent of lysis of mammalian red blood cells. Briefly, red blood cells are separated from whole blood by centrifugation, washed free of plasma components, and resuspended to a 5% (v/v) suspension in isotonic saline. […] Following incubation with constant agitation at 37° C. for 1 hour, the solution is centrifuged, and the absorbance of the supernatant is measured at 540 nm, which detects released hemoglobin. […]
compound,measurement,setting,value
CC[C@H](C)[C@H](NC(=O)[C@H](CC(C)C)NC(=O)[C@H](C)NC(=O)[C@@H]1CCCN1C(=O)[C@H](CC(C)C)NC(=O)CNC(=O)[C@@H](NC(=O)[C@@H](NC(=O)[C@H](CC(C)C)NC(=O)[C@@H](NC(=O)[C@H](CCCCN)NC(=O)[C@H](CCCCN)NC(=O)[C@@H](NC(=O)[C@H](C)NC(=O)[C@@H](NC(=O)[C@@H](NC(=O)[C@H](CC(C)C)NC(=O)[C@H](CCCCN)NC(=O)[C@H](CCCCN)NC(=O)[C@@H](NC(=O)[C@H](Cc1ccccc1)NC(=O)[C@H](CO)NC(=O)[C@H](CCCCN)NC(=O)[C@H](Cc1c[nH]c2ccccc12)NC(=O)[C@@H](N)CCCCN)[C@@H](C)CC)[C@@H](C)O)[C@@H](C)O)C(C)C)C(C)C)[C@@H](C)O)[C@@H](C)O)C(=O)N[C@@H](CO)C(=O)O [MBI 29],MTD at 7 days,[1],24 mg/kg
same,CC50,"[2]; DoHH-2 B-cell lymphoma cells, read-out: LC50 ± S.E., DoHH-2",2.1 ± 0.5 µg/mL
same,CC50,"[2]; H460 non-small lung tumor cells, read-out: LC50 ± S.E., H460",12.6 ± 10 µg/mL
same,CC50,"[2]; K562, read-out: LC50 ± S.E., K562",1 µg/mL
same,CC50,"[2]; MCF-7ADR multidrug resistant breast carcinoma cells, read-out: LC50 ± S.E., MCF-7 ADR",3.2 ± 1 µg/mL
same,CC50,"[2]; MCF-7 breast carcinoma cells, read-out: LC50 ± S.E., MCF-7",4 ± 2 µg/mL
same,CC50,"[2]; P388, read-out: LC50 ± S.E., P388",1.4 ± 0.5 µg/mL
same,CC50,"[2]; P388 ADR, read-out: LC50 ± S.E., P388 ADR",2 ± 0.2 µg/mL
same,CC50,"[2]; PBL, peripheral blood lymphocytes, read-out: LC50 ± S.E., PBL",12 ± 10 µg/mL
same,CC50,"[2]; human, human umbilical vein endothelial cells (HUVEC), read-out: LC50 ± S.E., HUVEC",10 µg/mL
same,% Lysis,[3],1.9%
